Patent US20240142467A1, “Use of Biomarkers in the Treatment of Fibrotic Conditions with a PDE4B-inhibitor” (Boehringer Ingelheim International GmbH, priority 2022, published 2024)

How the values were obtained:
[1] = tested on: bleomycin-induced lung fibrosis; test: Rat bleomycin model of pulmonary fibrosis; format: in vivo, Wistar rats
Procedure: Pulmonary remodeling was induced in rats by a single intratracheal administration of 1 mg/kg bleomycin.
Adult, test-naïve, male Wistar rats (WI(Han)); 280-300 g) were purchased from Janvier (Janvier Labs, Le Genest-Saint-Isle, France). All animal experimentation was conducted in accordance with German national guidelines and legal regulations and approved by the ethical committee Regierungspräsidium Tübingen (Germany) (Permit Number: 12-012).
Bleomycin was dissolved in phosphate buffered saline (PBS) to a final concentration of […]. On day 0, animals were transiently anaesthetised with isoflurane (3-4%) in oxygen. Using a 1 ml-Syringe with a 22-gauge flexible cannula, 200 μL/kg of either saline or bleomycin (final dose 1 mg/kg) were administered intratracheally.
The PDE4-inhibitor of formula A′ was dissolved in 0.5% hydroxyethyl cellulose containing 0.01% Tween20 and applied by oral gavage at a dose of 2.5 mL/kg twice daily at 06:00 and 18:00 from day 10 until day 20.
On day 18, animals were anaesthetized using 3-4% isoflurane and placed on the μCT (Quantum FX) scanner mounting plate. After measurement, animals were returned to the home cage for recovery. During imaging, synchronization procedures were employed for avoidance of motion blur (respiration, heart beat) thereby improving the quality of the images. The reconstruction of the three-dimensional pictures from the raw data could subsequently be performed.
Animals were anaesthetised with Narcoren (60 mg/mL/kg body weight i.p.) and Ketamine (0.5-1 mg/animal, i.m.). The trachea was exposed, a small incision made, and a tracheal tube fixed within the trachea by a ligature. Spontaneous breathing was suppressed by pancuronium (0.8 mg/kg; 1 mL/kg body weight, i.v.) and animals were mechanically ventilated with a tidal volume of 10 mL/kg, breathing frequency of 90 breaths/minute and a positive end expiratory pressure of 3 cmH2O. Airway resistance, compliance, elastance and pressure volume loop was determined by means of a FlexiVent system supported by software version 7.2. To perform the lung function measurement the template “FlexiVent FX-Rat Default-rel.B” with the script “Rat 6basic_1loop v7.0 Lamb” was used. A deep inspiration to total lung capacity (Deep Inflation) was performed with an inflation pressure limited to 30 cmH2O. A “Snapshot-90 v7.0, Quick Prime-3 v7.0, PVS-V v7.0 and PVs-P v7.0 measurement was subsequently conducted. After the lung function measurement animals were euthanized by an overdose of Narcoren (0.16 g/5 ml, 1 ml/animal i.v.).
The right main bronchus was occluded with a ligature and the right lung was removed. […]
All data are presented as means±S.E.M. of n animals. Statistical differences between groups were analyzed by the non-clinical statistical group.

[2] = tested on: patients with idiopathic pulmonary fibrosis; test: Phase 2 trial NCT04419506: treatment-emergent adverse events; conditions: for mean observed weight loss: over 12 weeks; for Any adverse event: 18 mg twice daily, 12 weeks
Text: The study was a double-blind, placebo-controlled, parallel-design, Phase 2 study performed at 90 sites in 22 countries. […] After completion of the 12-week treatment period, patients entered a 1-week follow-up period. Patients who prematurely discontinued study medication were asked to attend all visits as originally planned to minimize missing data. […] Patients, investigators, central reviewers, and those involved in the study conduct and analysis were unaware of the treatment assignments. An interactive voice-response system was used to perform randomization.
The secondary endpoint was the percentage of patients with treatment-emergent adverse events.
All treated patients were included in the safety analysis, stratified by use of background antifibrotics (no or yes), and the analysis was descriptive in nature. Safety was assessed by clinical and laboratory evaluation and the recording of treatment-emergent adverse events, as coded with the use of the Medical Dictionary for Regulatory Activities, version 22.0.

[3] = with background antifibrotics (N = 49)
[4] = without background antifibrotics
[5] = without background antifibrotics (N = 48)

For `[O-][S@+]1CCc2nc(N3CCC(c4ncc(Cl)cn4)CC3)nc(NC3(CO)CCC3)c21` [Compound of formula A′], the “improvement in tissue volume (ratio of remodeled tissue to total lung volume) measured by μCT” value ([1]; 2.5 mg/kg oral twice daily, day 10 to day 20, μCT on day 18, bleomycin 1 mg/kg intratracheal, P<0.05) was 64%, the “restoration of lung volume measured at a pressure of 30 cmH2O” value ([1]; oral twice daily, day 10 to day 20, FlexiVent, P<0.05) was 31% and the “reduction of OPN levels in lung tissue” value ([1]; oral twice daily, day 10 to day 20, OPN ELISA of right lung homogenate) was “approx. 49%”. For the same compound, the lung function ([1]; therapeutic rat model of bleomycin-induced lung fibrosis) was “improved lung function”, the “mean observed weight loss” value ([2]; group with antifibrotics) was -1.41 kg and the “mean observed weight loss” value ([2]; group without antifibrotics) was -0.76 kg. The “patients with fatal adverse events” value ([2]; treatment arm, both background groups together) was 2 patients, the “discontinuation of the study because of adverse events” value ([2]; with background antifibrotics) was 10 patients and the “patients with gastrointestinal disorders” value ([2]; with background antifibrotics) was 36.7%. The “patients with serious adverse events” value ([2]; with background antifibrotics) was 6.1%, the “patients with severe adverse events” value ([2]; with background antifibrotics) was 4.1% and the “Adverse events leading to discontinuation of study drug” value [2, 3] was 10 (20.4) n (%). For the same compound, the Asthenia [2, 3] was 1 (2.0) n (%), the Cough [2, 3] was 4 (8.2) n (%) and the Decreased appetite [2, 3] was 2 (4.1) n (%). The Diarrhea [2, 3] was 15 (30.6) n (%), the “Diarrhea leading to discontinuation” value [2, 3] was 3 (6.1) n (%) and the Dyspepsia [2, 3] was 2 (4.1) n (%). The Dyspnea [2, 3] was 0 (0.0) n (%), the Fatigue [2, 3] was 1 (2.0) n (%) and the Flatulence [2, 3] was 2 (4.1) n (%). For the same compound, the Gastrointestinal disorders [2, 3] was 18 (36.7) n (%), the “General disorders and administration site conditions” value [2, 3] was 7 (14.3) n (%) and the Headache [2, 3] was 3 (6.1) n (%). The Infections and infestations [2, 3] was 7 (14.3) n (%), the Investigations [2, 3] was 10 (20.4) n (%) and the “Investigator-defined drug-related adverse events” value [2, 3] was 18 (36.7) n (%). For the same compound, the “Metabolism and nutrition disorders” value [2, 3] was 3 (6.1) n (%), the Nasopharyngitis [2, 3] was 4 (8.2) n (%) and the Nausea [2, 3] was 1 (2.0) n (%). For the same compound, the Nervous system disorder [2, 3] was 9 (18.4) n (%), the “Patients with pre-specified adverse events of special interest (vasculitis and hepatic injury)” value [2, 3] was 1 (2.0) n (%) and the “Respiratory thoracic and mediastinal disorders” value [2, 3] was 6 (12.2) n (%). For the same compound, the “Serious adverse events: All” value [2, 3] was 3 (6.1) n (%), the “Serious adverse events: Other comparable medical criteria” value [2, 3] was 0 (0.0) n (%) and the “Serious adverse events: Required or prolonged hospitalization” value [2, 3] was 3 (6.1) n (%). For the same compound, the “Serious adverse events: Resulted in death” value [2, 3] was 1 (2.0) n (%), the Severe adverse events [2, 3] was 2 (4.1) n (%) and the Vomiting [2, 3] was 2 (4.1) n (%). For the same compound, the Weight decreased [2, 3] was 1 (2.0) n (%), the Any adverse event [2, 3] was 36 (73.5) n (%) and the “patients with serious adverse events” value ([2]; without antifibrotics) was 6.3%. For the same compound, the “discontinuation of the study because of adverse events” value [2, 4] was 3 patients, the “patients with gastrointestinal disorders” value [2, 4] was 27.1% and the “patients with severe adverse events” value [2, 4] was 4.2%. For the same compound, the “Adverse events leading to discontinuation of study drug” value [2, 5] was 3 (6.3) n (%), the Asthenia [2, 5] was 3 (6.3) n (%) and the Cough [2, 5] was 3 (6.3) n (%). For the same compound, the Decreased appetite [2, 5] was 1 (2.1) n (%), the Diarrhea [2, 5] was 8 (16.7) n (%) and the “Diarrhea leading to discontinuation” value [2, 5] was 0 (0.0) n (%). The Dyspepsia [2, 5] was 3 (6.3) n (%), the Dyspnea [2, 5] was 3 (6.3) n (%) and the Fatigue [2, 5] was 2 (4.2) n (%). For the same compound, the Flatulence [2, 5] was 3 (6.3) n (%), the Gastrointestinal disorders [2, 5] was 13 (27.1) n (%) and the “General disorders and administration site conditions” value [2, 5] was 9 (18.8) n (%). For the same compound, the Headache [2, 5] was 3 (6.3) n (%), the Infections and infestations [2, 5] was 6 (12.5) n (%) and the Investigations [2, 5] was 5 (10.4) n (%). The “Investigator-defined drug-related adverse events” value [2, 5] was 9 (18.8) n (%), the “Metabolism and nutrition disorders” value [2, 5] was 1 (2.1) n (%) and the Nasopharyngitis [2, 5] was 0 (0.0) n (%). The Nausea [2, 5] was 2 (4.2) n (%), the Nervous system disorder [2, 5] was 4 (8.3) n (%) and the “Patients with pre-specified adverse events of special interest (vasculitis and hepatic injury)” value [2, 5] was 0 (0.0) n (%). The “Respiratory thoracic and mediastinal disorders” value [2, 5] was 8 (16.7) n (%), the “Serious adverse events: All” value [2, 5] was 3 (6.3) n (%) and the “Serious adverse events: Other comparable medical criteria” value [2, 5] was 1 (2.1) n (%). For the same compound, the “Serious adverse events: Required or prolonged hospitalization” value [2, 5] was 2 (4.2) n (%), the “Serious adverse events: Resulted in death” value [2, 5] was 1 (2.1) n (%) and the Severe adverse events [2, 5] was 2 (4.2) n (%). The Vomiting [2, 5] was 1 (2.1) n (%), the Weight decreased [2, 5] was 2 (4.2) n (%) and the Any adverse event [2, 5] was 31 (64.6) n (%).
